Legend:
GTPase KRas = GTPase KRas (Homo sapiens, UniProt P01116, G12C); assay: Binding affinity to hexahistidine-tagged recombinant human KRas G12C mutant expressed in Escherichia coli BL21 (DE3) in presence of GDP
[1] = tested on: GTPase KRas (Homo sapiens), P01116 [G12C]; assay: Ratio of Kinact to Ki for hexahistidine-tagged recombinant human KRas G12C mutant expressed in Escherichia coli BL21 (DE3)
[2] = tested on: GTPase KRas (Homo sapiens), P01116 [G12C]; assay: Binding affinity to hexahistidine-tagged recombinant human KRas G12C mutant expressed in Escherichia coli BL21 (DE3) assessed as first-order rate constant in presence of GDP

GTPase KRas (Homo sapiens), P01116 [G12C], sequence (P01116 whole entry G12C): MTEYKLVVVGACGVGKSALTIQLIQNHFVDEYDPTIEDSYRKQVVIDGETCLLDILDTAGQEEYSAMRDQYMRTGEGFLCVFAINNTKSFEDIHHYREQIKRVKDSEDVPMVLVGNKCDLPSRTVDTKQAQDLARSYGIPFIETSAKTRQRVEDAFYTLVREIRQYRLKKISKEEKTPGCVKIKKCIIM
GTPase KRas, sequence (P01116 whole entry G12C): as above

Ki (GTPase KRas): > 64 µM
Ratio [1]: 1100 M⁻¹ s⁻¹
Kinact [2]: > 0.066 s⁻¹
Structure (SMILES): C=CC(=O)N1CCN(c2ncnc3c(F)c(-c4c(O)cccc4F)c(Cl)cc23)CC1 (atropisomer S)

Reference: ChEMBL document CHEMBL4196225, “Precedence and Promise of Covalent Inhibitors of EGFR and KRAS for Patients with Non-Small-Cell Lung Cancer” (ACS Med Chem Lett, 2018)
